ChEMBL document CHEMBL4340516, “Synthesis and antitumor activity of novel steroidal imidazolium salt derivatives” (Eur J Med Chem, 2019)

Tests used:
Assay type in all cases: functional, cell-based
MCF7 = test: Antiproliferative activity against human MCF7 cells assessed as reduction in cell viability incubated for 48 hrs by MTS assay; settings: MCF7, 48 h
A549 = test: Antiproliferative activity against human A549 cells assessed as reduction in cell viability incubated for 48 hrs by MTS assay; settings: A549, 48 h
SMMC-7721 = test: Antiproliferative activity against human SMMC7721 cells assessed as reduction in cell viability incubated for 48 hrs by MTS assay; settings: SMMC-7721, 48 h
HL-60 = test: Antiproliferative activity against human HL60 cells assessed as reduction in cell viability incubated for 48 hrs by MTS assay; settings: HL-60, 48 h
SW480 = test: Antiproliferative activity against human SW480 cells assessed as reduction in cell viability incubated for 48 hrs by MTS assay; settings: SW480, 48 h

Structure (SMILES)	IC50 (MCF7)	IC50 (A549)	IC50 (SMMC-7721)	IC50 (HL-60)	IC50 (SW480)
CC(C)CCC[C@@H](C)[C@H]1CC[C@H]2[C@@H]3C[C@H](n4cc[n+](Cc5ccccc5Br)c4)[C@]45C[C@H]4CC[C@]5(C)[C@H]3CC[C@]12C	10.8 µM	7.65 µM	1.16 µM	5.53 µM	10.9 µM
C[C@@H]1CC[C@@]2(OC1)O[C@H]1C[C@H]3[C@@H]4C[C@H](n5cc[n+](CC(=O)c6ccc7ccccc7c6)c5)[C@]56C[C@H]5CC[C@]6(C)[C@H]4CC[C@]3(C)[C@H]1[C@@H]2C	2.26 µM	7.27 µM	3.46 µM	1.03 µM	4.01 µM
C[C@@H]1CC[C@@]2(OC1)O[C@H]1C[C@H]3[C@@H]4CC=C5C[C@H](n6c[n+](CC(=O)c7ccc8ccccc8c7)c7ccccc76)CC[C@]5(C)[C@H]4CC[C@]3(C)[C@H]1[C@@H]2C	1.67 µM	1.32 µM	1.33 µM	1.1 µM	1.75 µM
CC(=O)O[C@H]1CC[C@@]2(C)C(=CC[C@H]3[C@@H]4CC[C@H](n5cc[n+](CC(=O)c6ccccc6)c5)[C@@]4(C)CC[C@@H]32)C1	9.07 µM	> 20 µM	12 µM	6.42 µM	11.1 µM
C[C@@H]1CC[C@@]2(OC1)O[C@H]1C[C@H]3[C@@H]4CC=C5C[C@H](n6cc[n+](Cc7ccccc7Br)c6)CC[C@]5(C)[C@H]4CC[C@]3(C)[C@H]1[C@@H]2C	1.41 µM	1.22 µM	0.95 µM	0.43 µM	1.66 µM
C[C@@H]1CC[C@@]2(OC1)O[C@H]1C[C@H]3[C@@H]4CC=C5C[C@H](n6c[n+](Cc7ccc8ccccc8c7)c7ccccc76)CC[C@]5(C)[C@H]4CC[C@]3(C)[C@H]1[C@@H]2C	2.31 µM	1.25 µM	0.88 µM	1.02 µM	1.8 µM
Cc1cc2c(cc1C)[n+](CC(=O)c1ccccc1)cn2[C@@H]1CC[C@@]2(C)C(=CC[C@H]3[C@@H]4CC[C@H]([C@H](C)CCCC(C)C)[C@@]4(C)CC[C@@H]32)C1	9.87 µM	8.11 µM	1.77 µM	0.28 µM	10.4 µM
CC(C)CCC[C@@H](C)[C@H]1CC[C@H]2[C@@H]3C[C@H](n4ccnc4)[C@]45C[C@H]4CC[C@]5(C)[C@H]3CC[C@]12C	> 20 µM	11.7 µM	2.12 µM	2 µM	16.4 µM
Cc1cc2ncn([C@@H]3CC[C@@]4(C)C(=CC[C@H]5[C@@H]6CC[C@H]([C@H](C)CCCC(C)C)[C@@]6(C)CC[C@@H]54)C3)c2cc1C	> 20 µM	> 20 µM	> 20 µM	0.18 µM	> 20 µM
Cc1cc2c(cc1C)[n+](Cc1ccc3ccccc3c1)cn2[C@@H]1CC[C@@]2(C)C(=CC[C@H]3[C@@H]4C[C@@H]5O[C@]6(CC[C@@H](C)CO6)[C@@H](C)[C@@H]5[C@@]4(C)CC[C@@H]32)C1	1.9 µM	5.12 µM	0.59 µM	0.42 µM	1.6 µM
C[C@@H]1CC[C@@]2(OC1)O[C@H]1C[C@H]3[C@@H]4C[C@H](n5cc[n+](Cc6ccc7ccccc7c6)c5)[C@]56C[C@H]5CC[C@]6(C)[C@H]4CC[C@]3(C)[C@H]1[C@@H]2C	1.95 µM	4.92 µM	2.45 µM	1.22 µM	4.03 µM
Cc1cc2c(cc1C)[n+](Cc1ccccc1Br)cn2[C@@H]1CC[C@@]2(C)C(=CC[C@H]3[C@@H]4CC[C@H]([C@H](C)CCCC(C)C)[C@@]4(C)CC[C@@H]32)C1	14.2 µM	8.44 µM	1.81 µM	6.96 µM	13.2 µM
C[C@@H]1CC[C@@]2(OC1)O[C@H]1C[C@H]3[C@@H]4C[C@H](n5cc[n+](Cc6ccccc6Br)c5)[C@]56C[C@H]5CC[C@]6(C)[C@H]4CC[C@]3(C)[C@H]1[C@@H]2C	3.86 µM	6.6 µM	4.58 µM	1.24 µM	6.33 µM
Cc1cc2nc[nH]c2cc1C [DIMEDAZOL]	> 20 µM	> 20 µM	> 20 µM	> 20 µM	> 20 µM
CC(C)CCC[C@@H](C)[C@H]1CC[C@H]2[C@@H]3CC=C4C[C@@H](n5cc[n+](CC(=O)c6ccc7ccccc7c6)c5)CC[C@]4(C)[C@H]3CC[C@]12C	> 20 µM	9.65 µM	2.1 µM	7.26 µM	11.3 µM
C[C@@H]1CC[C@@]2(OC1)O[C@H]1C[C@H]3[C@@H]4CC=C5C[C@@H](O)CC[C@]5(C)[C@H]4CC[C@]3(C)[C@H]1[C@@H]2C [DISOGENIN]	> 20 µM	> 20 µM	> 20 µM	> 20 µM	> 20 µM

Structure (SMILES)	IC50 (MCF7)	IC50 (A549)	IC50 (SMMC-7721)	IC50 (HL-60)	IC50 (SW480)
CC(C)CCC[C@@H](C)[C@H]1CC[C@H]2[C@@H]3CC=C4C[C@H](n5c[n+](CC(=O)c6ccccc6)c6ccccc65)CC[C@]4(C)[C@H]3CC[C@]12C	7.18 µM	7.51 µM	1.65 µM	0.88 µM	10.2 µM
C[C@@H]1CC[C@@]2(OC1)O[C@H]1C[C@H]3[C@@H]4C[C@H](n5cc[n+](CC(=O)c6cccc(Br)c6)c5)[C@]56C[C@H]5CC[C@]6(C)[C@H]4CC[C@]3(C)[C@H]1[C@@H]2C	5.21 µM	7.03 µM	7.28 µM	1.28 µM	6.46 µM
CC(C)CCC[C@@H](C)[C@H]1CC[C@H]2[C@@H]3CC=C4C[C@@H](O)CC[C@]4(C)[C@H]3CC[C@]12C [CHOLESTEROL]	> 20 µM	> 20 µM	> 20 µM	> 20 µM	> 20 µM
C[C@@H]1CC[C@@]2(OC1)O[C@H]1C[C@H]3[C@@H]4CC=C5C[C@@H](n6cc[n+](CC(=O)c7ccc8ccccc8c7)c6)CC[C@]5(C)[C@H]4CC[C@]3(C)[C@H]1[C@@H]2C	5.83 µM	3.49 µM	5.49 µM	1.37 µM	6.55 µM
CC(C)CCC[C@@H](C)[C@H]1CC[C@H]2[C@@H]3CC=C4C[C@H](n5c[n+](Cc6ccccc6Br)c6ccccc65)CC[C@]4(C)[C@H]3CC[C@]12C	8.97 µM	7.31 µM	1.56 µM	4.47 µM	10.6 µM
COc1ccc(C(=O)C[n+]2ccn([C@H]3C[C@H]4[C@@H]5C[C@@H]6O[C@]7(CC[C@@H](C)CO7)[C@@H](C)[C@@H]6[C@@]5(C)CC[C@@H]4[C@@]4(C)CC[C@@H]5C[C@]534)c2)cc1	4.49 µM	7.18 µM	7.32 µM	1.25 µM	7.03 µM
Cc1cc2c(cc1C)[n+](CC(=O)c1cccc(Br)c1)cn2[C@@H]1CC[C@@]2(C)C(=CC[C@H]3[C@@H]4C[C@@H]5O[C@]6(CC[C@@H](C)CO6)[C@@H](C)[C@@H]5[C@@]4(C)CC[C@@H]32)C1	2.78 µM	7.15 µM	1.39 µM	0.98 µM	2.22 µM
CC(=O)O[C@H]1CC[C@@]2(C)C(=CC[C@H]3[C@@H]4CC[C@H](n5cc[n+](Cc6ccccc6Br)c5)[C@@]4(C)CC[C@@H]32)C1	4.84 µM	6.52 µM	3.83 µM	1.48 µM	6.87 µM
CC(C)CCC[C@@H](C)[C@H]1CC[C@H]2[C@@H]3CC=C4C[C@@H](n5cc[n+](Cc6ccc7ccccc7c6)c5)CC[C@]4(C)[C@H]3CC[C@]12C	8.35 µM	6.95 µM	1.41 µM	5.39 µM	9.29 µM
CC(C)CCC[C@@H](C)[C@H]1CC[C@H]2[C@@H]3C[C@H](n4cc[n+](CC(=O)c5ccc6ccccc6c5)c4)[C@]45C[C@H]4CC[C@]5(C)[C@H]3CC[C@]12C	8 µM	8.53 µM	1.23 µM	2.41 µM	6.25 µM
c1c[nH]cn1 [IMIDAZOLE]	> 20 µM	> 20 µM	> 20 µM	> 20 µM	> 20 µM
C[C@]12CC[C@H](O)CC1=CC[C@@H]1[C@@H]2CC[C@]2(C)C(=O)CC[C@@H]12 [PRASTERONE]	> 20 µM	> 20 µM	> 20 µM	> 20 µM	> 20 µM
COc1ccc(C(=O)C[n+]2ccn([C@H]3C[C@H]4[C@@H]5CC[C@H]([C@H](C)CCCC(C)C)[C@@]5(C)CC[C@@H]4[C@@]4(C)CC[C@@H]5C[C@]534)c2)cc1	6.54 µM	6.68 µM	1.1 µM	1.52 µM	7.18 µM
CC(C)CCC[C@@H](C)[C@H]1CC[C@H]2[C@@H]3CC=C4C[C@@H](n5cc[n+](CC(=O)c6ccccc6)c5)CC[C@]4(C)[C@H]3CC[C@]12C	8.84 µM	8.1 µM	1.42 µM	7.73 µM	6.56 µM
COc1ccc(C(=O)C[n+]2ccn([C@@H]3CC[C@@]4(C)C(=CC[C@H]5[C@@H]6CC[C@H]([C@H](C)CCCC(C)C)[C@@]6(C)CC[C@@H]54)C3)c2)cc1	5.25 µM	13.2 µM	2.9 µM	6 µM	4.87 µM
